Test results: article PMC3977056, “Optimum Conditions of Radioligand Receptor Binding Assay of Ligands of Benzodiazepine Receptors” (Iranian Journal of Pharmaceutical Research : IJPR, 2014)

Key:
[1] = molecular target: T1, GABAA receptor, benzodiazepine (BZD) binding site (rat cortical membrane); assay: radioligand saturation binding, centrifugation separation
T1 construct: native receptor in cortical membrane of male Sprague-Dawley rats

[2] = molecular target: T1, GABAA receptor, benzodiazepine (BZD) binding site (rat cortical membrane); assay: [3H]-flumazenil competition binding
[3] = molecular target: T1, GABAA receptor, benzodiazepine (BZD) binding site (rat cortical membrane); assay: [3H]-flumazenil competition binding; […] used for nonspecific binding

With `CCOC(=O)c1ncn2c1CN(C)C(=O)c1cc(F)ccc1-2` [[3H]-flumazenil] the Kd [1] was 1.35 ± 0.316 nM.
Compound `Cc1cc(=O)n2nc(-c3ccccc3)oc2n1` [compound A, 2-phenyl-5-oxo-7-methyl-1,3,4-oxadiazolo[a,2,3]-pyrimidine] has a Ki [2] of 1.9 nM.
`CN1C(=O)CN=C(c2ccccc2)c2cc(Cl)ccc21` [diazepam] showed a Ki [3] of 1.53 nM.
